Results: PMC12013085, “Peptides targeting RAB11A–FIP2 complex inhibit HPIV3, RSV, and IAV replication as broad-spectrum antivirals” (Cell & Bioscience, 2025)
Like-named read-outs stand apart in the source and are kept apart here.

How the values were obtained:
HPIV3 [1] = assay: Late-stage HPIV3 replication with cytoskeleton inhibitors (TCID50, RT-qPCR, WB); conditions: HeLa cells infected 18 h, then inhibitor for 6 h; for viral RNA synthesis and protein expression levels: RT-qPCR and WB; for HPIV3 virions in the supernatant / intracellular progeny virus particles: TCID50 at 24 hpi
Experimental: To investigate the role of the cytoskeleton in the later stages of infection, HeLa cells were infected with HPIV3 for 18 h before being treated with the inhibitors for an additional 6 h.
A–D Impact of cytoskeleton inhibitors on HPIV3 replication. HeLa cells infected with HPIV3 for 18 h were treated with Nocodazole (NCZ) or Cytochalasin D (Cyto D). At 24 h post infection (hpi), the virions released in the cell supernatant (A) and the quantity of intracellular progeny virus particles (B) were determined by TCID50 assays. Cells were collected for RT-qPCR analysis of intracellular viral RNA (C), and Western Blot (WB) analysis of intracellular viral protein (D). […] All experiments were independently repeated at least twice with reproducible results. Statistical significance (*p < 0.05, **p < 0.01, ***p < 0.001) was determined by two-sided unpaired t test. Data are means ± SEM

HPIV3 VLPs in 293T cells = assay: HPIV3 VLP budding and plasma membrane fraction assay, WB; format: cell-based; conditions: 293T cells transfected with N, P, M plasmids 30 h, inhibitor for 6 h
Experimental: Data are presented as means ± SEM
The cell lysates were prepared as described for the Western blot (WB) analysis. The supernatant was harvested and clarified by centrifugation at 12,000×g for 5 min. Subsequently, the supernatant was pelleted through a 20% sucrose cushion at 4 °C at 35,000 rpm for 2 h. The VLP pellets obtained were resuspended in PBS and boiled with SDS-PAGE loading buffer at 100 °C for 10 min. Both the cell lysates and the supernatants were then subjected to WB analysis.
293T cells, cultured in 6-cm dishes, were transfected with the indicated plasmids for 24 h. Cell collection was performed through centrifugation at 500×g for 5 min at 4 °C. Subsequently, cytosol, organelle membrane, and plasma membrane-associated proteins were extracted sequentially using the MinuteTM plasma membrane protein isolation and cell fractionation kit (INVENT), following the manufacturer's instructions.

HPIV3 [2] = tested on: HPIV3
HeLa cells = assay: Cellular uptake of FITC-labeled RBD, fluorescent microscopy; format: in vitro ADME; conditions: 5 μM FITC-labeled RBD, with or without HPIV3HA-P infection, fluorescent microscopy at 24 hpi
Experimental: Supplementary file 13578_2025_1384_MOESM4_ESM.tif: Supplementary Material 4. Fig. S4. Cell penetration, cytotoxicity, and anti-HPIV3 activity of RBD in different cell lines. (A) Cellular uptake of FITC-labeled RBD in HeLa Cells. HeLa cells were exposed to 5 μM FITC-labeled RBD in the absence or presence of HPIV3HA-P infection, and analyzed by fluorescent microscopy at 24 hpi. RBD (green), HPIV3HA-P (red), and nuclei were stained with DAPI. Scale bar, 50 μm. (B to F) Cytotoxicity of RBD in various cell lines. Cell viability was assessed in HeLa (B), A549 (C), MK2 (D), MDCK (E) and HEp-2 cells (F) treated with increasing concentrations of […] for 24 h using the CCK-8 assay. (G to I) Antiviral efficacy of RBD against HPIV3 in different cell lines. A549 (G), MK2 (H) and MDCK (I) cells were treated with 2-fold-increasing concentrations of RBD for 24h, and viral titers in the cell supernatant were determined by TCID50. […] Data are means ± SEM.

[3] = tested on: HeLa, A549, MK2, MDCK and HEp-2 cells; conditions: CCK-8, 24 h treatment, in the tested cell lines (HeLa, A549, MK2, MDCK, HEp-2)
WSN virus = format: in vivo, BALB/c mice; conditions: 20 mg/kg i.p. once daily Day 0 to Day 4, positive control, n = 5

COC(=O)Nc1nc2ccc(C(=O)c3cccs3)cc2[nH]1 [NCZ, Nocodazole]
viral RNA synthesis and protein expression levels (HPIV3 [1]): unaffected
HPIV3 virions in the supernatant (HPIV3 [1]): significant reduction
intracellular progeny virus particles (HPIV3 [1]): decrease
VLP production (HPIV3 VLPs in 293T cells): modest effect

THIRELEDYIDNLLVRVMEETPSILRVPRKKRRQRRR [RBD]
SI (CC50/IC50), HPIV3, A549 (HPIV3 [2]; A549 cells): > 21.55
SI (CC50/IC50), HPIV3, HeLa (HPIV3 [2]; HeLa cells): > 23.08
SI (CC50/IC50), HPIV3, MDCK (HPIV3 [2]; MDCK cells): > 15.37
SI (CC50/IC50), HPIV3, MK2 (HPIV3 [2]; MK2 cells): > 27.68
IC50 (HPIV3 [2]; read-out: IC50, HPIV3, A549): 3.48 µM
IC50 (HPIV3 [2]; read-out: IC50, HPIV3, HeLa): 3.25 µM
IC50 (HPIV3 [2]; read-out: IC50, HPIV3, MDCK): 4.88 µM
IC50 (HPIV3 [2]; read-out: IC50, HPIV3, MK2): 2.71 µM
cell penetration (cellular uptake) (HeLa cells): efficiently penetrated HeLa cells
CC50 [3]: > 75 µM

CCOC(=O)C1=C[C@@H](OC(CC)CC)[C@H](NC(C)=O)[C@@H](N)C1 [Osel, Oseltamivir, reference compound]
protection against morbidity and mortality, IAV (WSN) (WSN virus): complete protection against morbidity and mortality

C=C1[C@@H](C)[C@H]2[C@H](Cc3ccccc3)NC(=O)[C@]23[C@H](OC(C)=O)/C=C/[C@@](C)(O)C(=O)[C@@H](C)C/C=C/[C@H]3[C@@H]1O [Cyto D, Cytochalasin D]
viral RNA synthesis and protein expression levels (HPIV3 [1]): unaffected
HPIV3 virions in the supernatant (HPIV3 [1]): significant reduction
intracellular progeny virus particles (HPIV3 [1]): decrease
VLP production (HPIV3 VLPs in 293T cells): substantial impact

N=C(N)NCCC[C@H](NC(=O)[C@H](CCCNC(=N)N)NC(=O)[C@H](CCCNC(=N)N)NC(=O)[C@H](CCC(N)=O)NC(=O)[C@H](CCCNC(=N)N)NC(=O)[C@H](CCCNC(=N)N)NC(=O)[C@H](CCCCN)NC(=O)[C@H](CCCCN)NC(=O)[C@@H](N)CCCNC(=N)N)C(=O)O [Tat, reference compound]
antiviral effect on HPIV3 infection (in words) (HPIV3 [2]; HeLa cells, escalating concentrations, 24 hpi, WB and TCID50): no discernible antiviral effect
